Assay results as given in patent publication US12661336B2, “Polymorphs of phenyl pyrrole aminoguandium salts” (SYNACT PHARMA APS, priority 2021, dated 2026).
Counter-ions that a name gives are not always drawn. Like-named read-outs stand apart in the source and are kept apart here.

What was measured:
[1] = 40° C./75% RH for 24 hours
Protocol: The resulting mixture was thermally cycled for 3 days between 40° C. and 5° C. (Ramp rate: 0.1° C./min with isothermal holds of 1 hour at 40° C. and 5° C.).
The resulting mixture was thermally cycled for 3 days between 40° C. and 5° C. (Ramp rate: 0.1° C./min with isothermal holds of 1 hour at 40° C. and 5° C.). Solids were isolated by centrifuge filtration and analysed wet by XRPD. Sample was dried at 40° C. under vacuum for 24 hours then reanalysed by XRPD.
The resulting mixture was thermally cycled for 3 days between 40° C. and 5° C. (Ramp rate: 0.1° C./min with isothermal holds of 1 hour at 40° C. and 5° C.). Solids were isolated by centrifuge filtration and analysed wet by XRPD.

[2] = Thermodynamic solubility of AP1189 salts in 0.5 M and 0.2 M buffer solutions (Example 6, Tables 38a, 38b); conditions: for Solubility (mM freebase) / XRPD analysis of residual solids from solubility experiment: 0.5 M buffer; for Solubility (mM freebase): 24 h
[3] = buffer solution pH 1.2, pH adjusted to 1.2 with concentrated hydrochloric acid, samples fully dissolved, HPLC
Protocol: As a result, the pH was adjusted to 1.2 with concentrated hydrochloric acid in both solutions. Both sample preparations were diluted 500 times with the sample diluent (acetonitrile:water 1:1 v/v).

N=C(N)NN=CC=Cc1cccn1-c1ccccc1[N+](=O)[O-].O=S(=O)(O)NC1CCCCC1 [Cyclamic Acid Pattern 5, N-{3-[1-(2-nitrophenyl)-1H-pyrrol-2-yl]-allylidene}-aminoguanidinium cyclamate]
XRPD diffractogram after storage [1]: consistent with pattern 5

N-{3-[1-(2-nitrophenyl)-1H-pyrrol-2-yl]-allylidene}-aminoguanidinium edisylate [Ethane-1,2-disulfonic Acid Pattern 5]
XRPD diffractogram after storage [1]: consistent with pattern 1

N-{3-[1-(2-nitrophenyl)-1H-pyrrol-2-yl]-allylidene}-aminoguanidine glutaric acid salt [Glutaric Acid Pattern 1]
XRPD diffractogram after storage [1]: resulted in a new pattern by XRPD (Pattern 4)

N=C(N)N/N=C/C=C/c1cccn1-c1ccccc1[N+](=O)[O-] [Fumarate Salt Pattern 1 (Form D)]
Solubility (mM freebase) ([2]; pH 1.2, thermodynamic solubility): 7.84 mM freebase
Solubility (mM freebase) ([2]; pH 4.5, thermodynamic solubility): 1.64 mM freebase

CC(=O)O.N=C(N)NN=CC=Cc1cccn1-c1ccccc1[N+](=O)[O-] [AP1189 acetate, N-{3-[1-(2-nitrophenyl)-1H-pyrrol-2-yl]-allylidene}-aminoguanidinium acetate]
Determined concentration in pH 1.2 samples, pH 1.2 (time) [3]: >223 mg/mL
Determined concentration in pH 1.2 samples, pH 1.2 (time) ([3]; time: acetate 5 h, succinate 0.5 h): >617 mM (5 h)
XRPD analysis of residual solids from solubility experiment ([2]; pH 1.2): a likely HCl salt (assigned as HCl Pattern 1) was formed
XRPD analysis of residual solids from solubility experiment ([2]; pH 4.5): remained
solubility, comparison of salts (in words) ([2]; 0.5 M buffers, succinate Pattern 1 compared with fumarate Pattern 1): highest solubility
solubility at pH 1.2 (in words) ([2]; pH 1.2): high solubility
